Source: patent US20070271620A1, “Animal model for type II diabetes mellitus and Syndrome X and methods and uses thereof” (priority 2005, published 2007)
“And” between values parts separate entries of the source, which are not always exact repeats. Equal entries are not always repeated.

Tests used:
[1] = test system: cross-bred pigs (Yorkshire×Landrace); assay: 6,6-2H-glucose tracer kinetics (fasting Ra glucose, hepatic glucose production, whole body glucose uptake) in STZ diabetic pigs; assay type: in vivo, pig; settings: 130 mg STZ/kg
Description: Protocol 1: fasting hepatic glucose production and whole body glucose uptake were studied with 6,6-^2H-glucose infusion in five normal and five STZ (130 mg/kg) diabetic pigs.
Protocol 2: insulin-mediated hepatic glucose production and whole body glucose uptake were studied with the hyperinsulinemic (1 or 2 mU/kg/minute) euglycemic clamp technique in combination with 6,6-^2H-glucose infusion in six normal and seven STZ (130 mg/kg) diabetic pigs.
After overnight fasting, a 6,6-^2H-glucose solution was administered as a prime—(72 mg) continuous (1.2 mg/minute) infusion for three hours in normal pigs. In diabetic pigs, 6,6-^2H-glucose was given as an adjusted prime— (216 mg) continuous (3.6 mg/minute) infusion for three hours (Koopmans et al., 1991). Isotopic steady-state conditions were achieved within 90 minutes after initiation of the tracer infusion and steady-state calculations were carried out during the last hour of the tracer infusion (t=120, 135, 150, 165 and 180 minutes). […]
Blood samples for determination of 6,6-^2H-glucose enrichment, glucose and insulin were collected in heparinized tubes (150 USP. U. Lithium Heparin, 10 mL Venoject, Terumo, Leuven, Belgium) and immediately chilled at 0° C. on ice and centrifuged at 4° C. for ten minutes at 3000 rpm. […] Selected ion monitoring, data acquisition and quantitative calculations were performed using the HP Chemstation software. Glucose concentration was determined using the internal standard method (xylose was added as internal standard). The internal standard was monitored at m/z 145. Glucose was monitored at m/z 187 for glucose and m/z 189 for d2-glucose. Glucose enrichments were calculated by dividing the area of the m/z 189 peak and the m/z 187 peak and correcting for natural enrichments. Isotopic enrichment was calculated as tracer-to-tracee ratio after subtracting the isotopic enrichment of a background plasma sample. An aliquot of the 6,6-^2H-glucose infusate was analyzed for the isotope concentration to calculate the actual infusion rate for each infusion experiment. […]

[2] = test system: cross-bred pigs (Yorkshire×Landrace); assay: Fasting and postprandial plasma lipid profiles and postprandial insulin in STZ diabetic pigs; assay type: in vivo, pig
Description: Fasting blood samples were taken before the start of hyperinsulinemic clamp experiments and postprandial blood samples were taken two to three hours after a morning meal in the week following a clamp study.
Blood samples for determination of triglycerides and non-esterified fatty acids (NEFA) were collected in tubes containing EDTA (0.47 mol/L EDTA, 10 mL Venoject, Terumo, Leuven, Belgium) and immediately chilled at 0° C. on ice, and centrifuged at 4° C. for ten minutes at 3000 rpm. Plasma was stored, at −20° C. in four aliquots of 0.5 mL for further analyses.
Concentrations of triglycerides, cholesterol and NEFA were measured using commercially available test kits (Boehringer Mannheim, Mannheim Germany; Human, Wiesbaden, Germany; and Wako Chemicals, Neuss, Germany, respectively).

[3] = pigs, STZ 130 mg/kg, two to three hours after morning meal

Structure (SMILES): CN(N=O)C(=O)N[C@H]1C(O)O[C@H](CO)[C@@H](O)[C@@H]1O (mixture of isomers) [STZ, streptozotocin]
- Fasting Ra glucose compared to normal pigs [1]: approximately two-fold greater
- Insulin-inhibited hepatic glucose production versus normal pigs [1]: two-fold greater
- Insulin-stimulated whole body glucose uptake versus normal pigs [1]: three-fold lower
- Postprandial plasma insulin ([2]; STZ diabetic pigs, two to three hours after feeding, detection limit): ~1 mU/L
- Fasting cholesterol and NEFA concentrations compared to normal pigs ([2]; pigs, STZ 130 mg/kg): did not differ
- Fasting plasma NEFA ([2]; pigs, STZ 130 mg/kg): 0.9 ± 0.3 mmol/L
- Fasting plasma cholesterol ([2]; pigs, STZ 130 mg/kg): 2.1 ± 0.2 mmol/L
- Fasting plasma triglyceride elevation compared to normal pigs ([2]; pigs, STZ 130 mg/kg): five-fold
- Fasting plasma triglycerides ([2]; pigs, STZ 130 mg/kg): 1.0 mmol/L and 1.0 ± 0.3 mmol/L
- Postprandial plasma NEFA elevation compared to normal pigs ([2]; pigs, STZ 130 mg/kg): seven-fold
- Postprandial plasma cholesterol elevation compared to normal pigs ([2]; pigs, STZ 130 mg/kg): 1.3 fold
- Postprandial plasma triglycerides elevation compared to normal pigs ([2]; pigs, STZ 130 mg/kg): four-fold
- Postprandial plasma NEFA [2, 3]: 1.5 ± 0.5 mmol/L
- Postprandial plasma cholesterol [2, 3]: 2.3 ± 0.2 mmol/L
- Postprandial plasma trigylcerides [2, 3]: 1.2 mmol/L and 1.2 ± 0.3 mmol/L
